Earlier results in PMC13029847, “Decoding the Liver–Blood Partitioning of Neonicotinoid Insecticides: Evidence from Paired Human Liver and Blood Biomonitoring” (Toxics, 2026).
≈ marks a conversion by molar mass, not a printed value.

Settings: ref PubChem Open Chemistry Database

| Structure (SMILES) | Solubility |
| --- | --- |
| CCN(Cc1ccc(Cl)nc1)/C(=C/[N+](=O)[O-])NC [NIT, nitenpyram] | 840 g/L (≈ 3100 mM) |
| CN1COCN(Cc2cnc(Cl)s2)/C1=N\[N+](=O)[O-] [THIA, thiamethoxam] | 4.1 g/L (≈ 14.1 mM) |
